According to patent US8796256B2 (Janssen Pharmaceutica NV, priority 2010, dated 2014):

Biological target: T1, ERR1 (also known as ERR-α or ERR-1) (Homo sapiens, UniProt P11474)
T1 sequence (P11474 193-421 limits assumed): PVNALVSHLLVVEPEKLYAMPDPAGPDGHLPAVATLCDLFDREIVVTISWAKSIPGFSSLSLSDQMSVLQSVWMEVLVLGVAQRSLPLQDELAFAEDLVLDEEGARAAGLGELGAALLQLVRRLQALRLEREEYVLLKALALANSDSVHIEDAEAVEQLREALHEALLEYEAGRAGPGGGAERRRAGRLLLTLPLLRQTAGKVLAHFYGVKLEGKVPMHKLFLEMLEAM
Experiment: TR-FRET assay (disruption of co-activator peptide binding to ERR1 LBD)
Format: biochemical
Details: 6 nM 6His-ERR1LBD, 6 nM GST-SRC-2 peptide; average of 3 independent experiments
Procedure, shortened: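 Homogeneous TR-FRET measuring displacement of GST-hSRC2 co-activator peptide (6 nM) from His-tagged ERR1 LBD (6 nM), detected with α-GST Eu cryptate (30 nM) and α-His-XL665 (7.5 nM). Buffer 25 mM Tris pH 8, 2.5 mM Hepes, 20 mM KCl, 1 mM DTT, 0.05 mg/mL delipidated BSA; equilibration 4-18 h at 25° C. Hyperbolic dose-response fit, mean of 3 experiments.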

In the case of `CCN1CCC(N2C(=O)S/C(=C\c3ccc4c(cnn4Cc4ccc(Cl)cc4C(F)(F)F)c3)C2=O)CC1` [Compound 118, (5Z)-5-({1-[4-Chloro-2-(trifluoromethyl)benzyl]-1H-indazol-5-yl}methylidene)-3-(1-ethylpiperidin-4-yl)-1,3-thiazolidine-2,4-dione], the EC50 is reported as 25 nM.

In the case of `CCN1CC[C@H](N2C(=O)S/C(=C\c3ccc4c(cnn4Cc4ccc(Cl)cc4C(F)(F)F)c3)C2=O)C1` [Compound 119, (5Z)-5-({1-[4-Chloro-2-(trifluoromethyl)benzyl]-1H-indazol-5-yl}methylidene)-3-[(3S)-1-ethylpyrrolidin-3-yl]-1,3-thiazolidine-2,4-dione], the EC50 is reported as 40 nM.

For `O=C1S/C(=C\c2ccc3c(cnn3Cc3ccc(Cl)cc3C(F)(F)F)c2)C(=O)N1CCN1CCC1` [Compound 120, (5Z)-3-(2-Azetidin-1-ylethyl)-5-({1-[4-chloro-2-(trifluoromethyl)benzyl]-1H-indazol-5-yl}methylidene)-1,3-thiazolidine-2,4-dione], the EC50 was 220 nM.

Compound `O=C(O)CN1C(=O)S/C(=C\c2ccc3c(cnn3Cc3ccc(F)cc3C(F)(F)F)c2)C1=O` [Compound 122, [(5Z)-5-({1-[4-Fluoro-2-(trifluoromethyl)benzyl]-1H-indazol-5-yl}methylidene)-2,4-dioxo-1,3-thiazolidin-3-yl]acetic acid] has an EC50 of 314 nM.

`COCCN1C(=O)S/C(=C\c2ccc3c(cnn3Cc3ccc(Cl)cc3C(F)(F)F)c2)C1=O` [Compound 123, (5Z)-5-({1-[4-Chloro-2-(trifluoromethyl)benzyl]-1H-indazol-5-yl}methylidene)-3-(2-methoxyethyl)-1,3-thiazolidine-2,4-dione] gave an EC50 of 45 nM.

For `O=C1S/C(=C\c2ccc3c(cnn3Cc3ccc(Cl)cc3C(F)(F)F)c2)C(=O)N1C1CCCNC1` (stereo not drawn) [Compound 124, (5Z)-5-({1-[4-Chloro-2-(trifluoromethyl)benzyl]-1H-indazol-5-yl}methylidene)-3-piperidin-3-yl-1,3-thiazolidine-2,4-dione], the EC50 was 51 nM.

`O=C1S/C(=C\c2ccc3c(cnn3Cc3ccc(Cl)cc3C(F)(F)F)c2)C(=O)N1[C@@H]1CCOC1` [Compound 125, (5Z)-5-({1-[4-Chloro-2-(trifluoromethyl)benzyl]-1H-indazol-5-yl}methylidene)-3-[(3R)-tetrahydrofuran-3-yl]-1,3-thiazolidine-2,4-dione] gave an EC50 of 47 nM.

Work on `CN1C(=O)S/C(=C\c2ccc3c(cnn3Cc3ccc(Cl)cc3C(F)(F)F)c2)C1=O` [Compound 127, (5Z)-5-({1-[4-Chloro-2-(trifluoromethyl)-benzyl]-1H-indazol-5-yl}methylidene)-3-methyl-1,3-thiazolidine-2,4-dione] yielded an EC50 of 32 nM.

With `CS(=O)(=O)CCN1C(=O)S/C(=C\c2ccc3c(cnn3Cc3ccc(Cl)cc3C(F)(F)F)c2)C1=O` [Compound 129, (5Z)-5-({1-[4-Chloro-2-(trifluoromethyl)benzyl]-1H-indazol-5-yl}methylidene)-3-[2-(methylsulfonyl)ethyl]-1,3-thiazolidine-2,4-dione] the EC50 was 18 nM.

`O=C1S/C(=C\c2ccc3c(cnn3Cc3ccc(Cl)cc3C(F)(F)F)c2)C(=O)N1CC1CCNCC1` [Compound 130, (5Z)-5-({1-[4-Chloro-2-(trifluoromethyl)benzyl]-1H-indazol-5-yl}methylidene)-3-(piperidin-4-ylmethyl)-1,3-thiazolidine-2,4-dione] gave an EC50 of 33 nM.

Compound `O=C1OCCN1CCN1C(=O)S/C(=C\c2ccc3c(cnn3Cc3ccc(Cl)cc3C(F)(F)F)c2)C1=O` [Compound 131, (5Z)-5-({1-[4-Chloro-2-(trifluoromethyl)benzyl]-1H-indazol-5-yl}methylidene)-3-[2-(2-oxo-1,3-oxazolidin-3-yl)ethyl]-1,3-thiazolidine-2,4-dione] has an EC50 of 5 nM.

Work on `O=C1S/C(=C\c2ccc3c(cnn3Cc3ccc(Cl)cc3C(F)(F)F)c2)C(=O)N1[C@@H]1CN2CCC1CC2` [Compound 132, (5Z)-3-[(3S)-1-Azabicyclo[2.2.2]oct-3-yl]-5-({1-[4-chloro-2-(trifluoromethyl)benzyl]-1H-indazol-5-yl}methylidene)-1,3-thiazolidine-2,4-dione] yielded an EC50 of 18 nM.
